# Key:
# [1] = test system: antigen-induced SRS-A (leukotriene) mediated bronchoconstriction; experiment: In vivo antigen-induced SRS-A (leukotriene) mediated bronchoconstriction (method of Anderson et al); design: species or system guinea pigs; settings: n=8
# Description: The effect of β-Sitosterol-β-D-glucoside was investigated on antigen-induced SRS-A (leukotriene) mediated bronchoconstriction according to the method of Anderson et al (Br. J. Pharmacol. 78,67-74, 1983). Twenty-eight to thirty-three days after the single ovalbumine dose the guinea pigs were anaesthetised and surgically prepared for intravenous administration of the test compounds and measuring the ventilatory pressure. Prior to the antigen (ovalbumine) challenge the animals were adequately pretreated with indomethacin, pyrilamine and propanolol to eliminate the effect of other interfering mediators released during the anaphylactic reaction. The test substance was administered 1 minute before the ovalbumine challenge.
# The vehicle (50% DMSO in water) served as a control. Phenindone was used as the standard reference substance.
# [2] = molecular target: T1, 12-lipoxygenase (Homo sapiens, UniProt P18054); experiment: In vitro lipoxygenase inhibition in platelets, arachidonic acid products by radio thin-layer chromatography; format: cell-based; settings: 120' saturated solution
# T1 construct: endogenous in cells; host or cells: washed human platelets
# T1 sequence (P18054 1-663): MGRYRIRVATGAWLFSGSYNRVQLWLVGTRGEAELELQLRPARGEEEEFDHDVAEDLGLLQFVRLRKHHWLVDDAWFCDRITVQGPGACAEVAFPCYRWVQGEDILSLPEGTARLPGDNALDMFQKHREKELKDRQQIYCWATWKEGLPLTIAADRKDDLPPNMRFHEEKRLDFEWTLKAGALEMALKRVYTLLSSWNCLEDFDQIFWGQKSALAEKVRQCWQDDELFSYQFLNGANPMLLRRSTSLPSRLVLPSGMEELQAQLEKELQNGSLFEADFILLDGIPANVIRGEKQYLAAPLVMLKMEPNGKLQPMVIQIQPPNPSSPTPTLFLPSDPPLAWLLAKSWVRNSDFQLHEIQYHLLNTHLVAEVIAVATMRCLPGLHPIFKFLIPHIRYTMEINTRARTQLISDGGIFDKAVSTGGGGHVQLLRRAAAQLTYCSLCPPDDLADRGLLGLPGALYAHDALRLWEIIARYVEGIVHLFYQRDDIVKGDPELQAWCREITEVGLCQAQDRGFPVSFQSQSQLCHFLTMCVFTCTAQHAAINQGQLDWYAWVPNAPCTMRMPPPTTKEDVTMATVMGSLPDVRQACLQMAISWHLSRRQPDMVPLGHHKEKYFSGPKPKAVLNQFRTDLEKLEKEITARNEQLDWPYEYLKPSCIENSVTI
# Procedure: (§1) Washed and resuspended platelets or leucocytes were incubated in one test with a saturated solution of β-sitosterol β-D-glucoside (23,5 mg/10ml ethanol) and in a second test with a 10 times oversaturated solution with addition of 0.25 µCi arachidonic acid for 5 minutes. The test mixtures were then acidified and extracted with ethyl acetate. Separation of the reaction products was performed by radio-thinlayer-chromatography.
# (§2) The number of leukocytes in test 1 was 2000 and in test 2, 1600 and the number of platelets in the platelets test 1 was 140 000 and in test 2 it was 240 000.
# (§3) After incubation with the test substance a significant inhibition of the lipoxygenase products can be shown when using platelets leading to a near complete synthesis inhibition and accumulation of non-metabolized arachidonic acid. As far as leucocytes are concerned, there is a dosage-dependant inhibitory effect of the lipoxygenase whereby the changes are mainly based on 12-hydroxyeicoscatetraenoic acid (12-HETE) and 12-HPETE while lesser changes are observed for HHT.
# [3] = test system: 12-lipoxygenase; experiment: In vitro lipoxygenase inhibition in leucocyte preparations, arachidonic acid products by radio thin-layer chromatography; format: cell-based, human
# Procedure: as §1, §2, §3
# [4] = molecular target: T2, 12-lipoxygenase of the platelets (Homo sapiens, UniProt P18054); experiment: Influence upon lipoxygenase: thrombin-stimulated washed human platelets (method of Schroer et al); format: cell-based; settings: washed human platelets stimulated with thrombin (0.6 iU/ml)
# T2 construct: endogenous in cells; host or cells: washed human platelets
# T2 sequence (P18054 1-663): T1 sequence (P18054 1-663)
# Procedure: The tests were performed according to the method devised by Schroer et al, Naunyn-Schmiedeberg's Arch. Pharmak. 313, 69 (1980). According to this method washed human platelets are stimulated with thrombin (0.6 iU/ml). Arachidonic acid released from the platelets upon stimulation is transformed by the 12-lipoxygenase of the platelets into 12-hydro-peroxy-eicosatetraenoic acid (12-HPETE).
# [5] = 10 mg/kg i.v., 1 minute after challenge
molecule,measurement,setting,value
"CC[C@H](CC[C@@H](C)[C@H]1CC[C@H]2[C@@H]3CC=C4C[C@@H](O[C@@H]5O[C@H](CO)[C@@H](O)[C@H](O)[C@H]5O)CC[C@]4(C)[C@H]3CC[C@]12C)C(C)C [β-Sitosterol- β-D-glucoside, β-sitosterol β-D-glucoside]",MEAN CHANGE (AS % OF MAX ±S.E.M.) IN VENTILATION PRESSURE AFTER OVALBUMIN ADMINISTRATION,"[1]; 1 mg/kg i.v., 1 minute after challenge",5.8 ±4.5 % OF MAX
same,MEAN CHANGE (AS % OF MAX ±S.E.M.) IN VENTILATION PRESSURE AFTER OVALBUMIN ADMINISTRATION,[1]; [5],1.8 ±2.8 % OF MAX
same,MEAN CHANGE (AS % OF MAX ±S.E.M.) IN VENTILATION PRESSURE AFTER OVALBUMIN ADMINISTRATION,"[1]; 10 mg/kg i.v., 2 minutes after challenge",31.0 ±9.8 % OF MAX
same,12 HETE 12 HPETE in %,"[2]; test 1, platelets (140 000), normal 39.8",3.8%
same,12 HETE 12 HPETE in %,"[2]; test 2, platelets (240 000), normal 35.0",11.9%
same,12 HETE 12 HPETE in %,"[3]; test 1, leukocytes (2000), 30' oversaturated (10 times) solution, normal 50.2",12.4%
same,12 HETE 12 HPETE in %,"[3]; test 1, leukocytes (2000), 30' saturated solution (23,5 mg/10ml ethanol), normal 50.2",35.9%
same,12 HETE 12 HPETE in %,"[3]; test 1, leukocytes (2000), 120' saturated solution, normal 50.2",13.4%
same,12 HETE 12 HPETE in %,"[3]; test 2, leukocytes (1600), 30' oversaturated (10 times) solution, normal 48.0",22.7%
same,12 HETE 12 HPETE in %,"[3]; test 2, leukocytes (1600), 30' saturated solution, normal 48.0",37.0%
same,12 HETE 12 HPETE in %,"[3]; test 2, leukocytes (1600), 120' saturated solution, normal 48.0",2.7%
"O=C1CCN(c2ccccc2)N1 [Phenidone, reference compound]",MEAN CHANGE (AS % OF MAX ±S.E.M.) IN VENTILATION PRESSURE AFTER OVALBUMIN ADMINISTRATION,[1]; [5],3.1 ±1.0 % OF MAX
"CCCCCC#CCC#CCC#CCC#CCCCC(=O)O [ETYA, 5,8,11,14-eicosatetraynoic acid, reference compound]",inhibition at 10 µM,[4]; 10 µM/ml,97%
Diosgeninglucoside,inhibition,[4]; 5 µM/ml,13%
same,inhibition,[4]; 10 µM/ml,31%
same,inhibition,[4]; 50 uM/ml,60%

# — patent EP0162330B1, “Use of sterolins and spiroketalins in the production of medicaments for the treatment of psoriasis” (Roecar Holdings (Netherlands Antilles) N.V., priority 1984, dated 1985)
